Measured values: US8377903B2, “Cladribine regimen for treating multiple sclerosis” (Merck Serono SA, priority 2004, dated 2013)

Columns and labels:
[1] = test system: patients with relapsing forms of clinically definite multiple sclerosis; assay: Oral Cladribine in the treatment of relapsing forms of MS (Example 1 protocol); assay type: in vivo, human
Excerpt: The efficacy and safety of oral Cladribine administration, eventually multi-dose administration, according to the invention can be assessed for example following the protocol below:
A study of sixty patients with relapsing forms of clinically definite multiple sclerosis is undertaken. Each patient is first examined for normal hepatic, renal, and bone marrow functioning to establish baseline values.
Patients are selected from Male or Female, between 18 and 55 years of age who had one or more relapses within the prior 12 months. Female patients are non-pregnant female.
Each of the patients in Groups 2 and 3 receives 3 mg or 10 mg 2-CdA (1, 2 or 3 administration(s) a day depending on the patient's weight) combined in cyclodextrin formulation as described in WO 2004/087101, Example 3. The Compositions of the Cladribine formulations in 3 mg or 10 mg 2-CdA tablets containing hydroxypropyl-beta-cyclodextrin are listed in Table 2 below:
In Group 1 patients receive a placebo (saline) for 4 months followed by 8 months of no treatment.
Patients are monitored to determine whether there is any progression or improvement of brain lesions associated with progression of MS through MRI scans and neurological examination as described in Miller et al., 1996, above; Evans et al., 1997, above; Sipe et al., 1984, above; and Mattson, 2002, above. All patients have a baseline and MRI study (brain or spinal cord, according to localization of the lesions) at month 12.
The patient's disability progression and the time for having a first relapse are monitored as well as the proportion of relapse-fee patients at 24 months.
Lymphocyte markers and monocyte counts are monitored in the patients.

[2] = test system: patients with Chronic Progressive MS and Relapsing-Remitting MS; details: Phase II; 0.1 mg/kg/day i.v. 7 days x 4 months or 0.07 mg/kg/day s.c. 5 days x 6 months; cited from earlier work
[3] = test system: patients with primary progressive (PP) or secondary progressive (SP) multiple sclerosis; details: Phase III; 0.07 mg/kg/day s.c., repeated for 2 or 6 months; cited from earlier work
[4] = test system: patients with multiple sclerosis; details: with the highest doses; i.v. or s.c.; cited from earlier work
[5] = test system: patients with remitting-relapsing multiple sclerosis; details: 6 monthly courses of 5 days, total dose about 4-5.7 mg/kg, cited from earlier work
[6] = oral, succession of an induction treatment and maintenance treatments

Nc1nc(Cl)nc2c1ncn2[C@H]1C[C@H](O)[C@@H](CO)O1 [Cladribine, 2-chloro-2′ deoxyadenosine]
brain lesions (MRI scans) ([1]; Groups 2 and 3: oral 2-CdA total dose 1.75 mg/kg or 3.5 mg/kg): decrease in brain lesions
adverse effects [1, 6]: no severe adverse effect is observed
efficacy of regimen on brain lesions [1, 6]: efficient in decreasing brain lesions
effects on EDSS, SNRS scores and MRI findings [2]: positive effects
MRI-measured brain lesions [3]: positive on the significant reduction of MRI-measured brain lesions
adverse effects (AEs) [4]: increased incidence of infections related to compromised immune function or myelosuppression
therapeutic efficacy of oral regimen versus i.v. infusion therapy [5]: questioned
side effects versus i.v. infusion study ([5]; oral): less severe
